Results on twelve compounds are retold here after the supplement of paper PMC11451515.

Holding throughout (assay): AUC of viability dose-response curve (% viability x log10 dose units); higher = less sensitive
Common to all, as to settings: 48 h

One experiment concerns NOMO1. A digest of the protocol: (§1)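 Viability of medium-adapted leukemia cells was measured by CellTiter-Glo One luminescence after 48 h at 37°C with library compounds in DMSO. Doses were 11 threefold steps from 47 μM to 0.79 nM, in 1536-well plates at 500 or 1000 cells/well. Signals were normalised per plate to DMSO and cell-free wells and fitted with a four-parameter log-logistic model on log10 dose. Area under the curve was integrated by trapezoidal rule, with curves exceeding full viability scaled and failed quality-control curves removed.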

Another experiment concerns P12-Ichikawa. A digest of the protocol:
as §1

In a further experiment the test system is SEM cells. Summed up: as §1
Setting [1] is: RPMI 5 mM glucose + 10% dialyzed FBS.

Consider `CC(C)(Sc1ccc(CCN(CCCCC2CCCCC2)C(=O)NC2CCCCC2)cc1)C(=O)O`, for which the “AUC of viability dose-response curve” value was 467 in the experiment on NOMO1 (HPLM + 10% dialyzed FBS); 467 in the experiment on NOMO1 (RPMI 5 mM glucose + 10% FBS); 472 in the experiment on NOMO1 (setting [1]); 460 with P12-Ichikawa (HPLM + 10% dialyzed FBS); 462 in the experiment on P12-Ichikawa (RPMI 5 mM glucose + 10% FBS); 460 in the experiment with P12-Ichikawa (setting [1]). Besides, the “AUC of viability dose-response curve” value in the experiment with SEM cells (HPLM + 10% dialyzed FBS) is 460; in the experiment on SEM cells (RPMI 5 mM glucose + 10% FBS), 463; with SEM cells (setting [1]) it was 472.
Take `Nc1nc(NCCNc2ncc(-n3ccnc3)c(-c3ccc(Cl)cc3Cl)n2)ccc1[N+](=O)[O-]`: the “AUC of viability dose-response curve” value in the experiment on NOMO1 (HPLM + 10% dialyzed FBS) was 460; in the experiment on NOMO1 (RPMI 5 mM glucose + 10% FBS), 412; in the experiment on NOMO1 (setting [1]), 442; with P12-Ichikawa (HPLM + 10% dialyzed FBS) it was 464; in the experiment with P12-Ichikawa (RPMI 5 mM glucose + 10% FBS), 447; with P12-Ichikawa (setting [1]) it was 466. Also, the “AUC of viability dose-response curve” value in the experiment on SEM cells (HPLM + 10% dialyzed FBS) turned out to be 452; in the experiment with SEM cells (RPMI 5 mM glucose + 10% FBS), 446; with SEM cells (setting [1]) it was 450.
For `CCOC(=O)N[C@@H]1CC[C@@H]2[C@@H](C1)C[C@H]1C(=O)O[C@H](C)[C@H]1[C@H]2/C=C/c1ccc(-c2cccc(F)c2)cn1`, the “AUC of viability dose-response curve” value in the experiment with NOMO1 (HPLM + 10% dialyzed FBS) was determined as 466; in the experiment with NOMO1 (RPMI 5 mM glucose + 10% FBS), 467; in the experiment on NOMO1 (setting [1]) it was 468; in the experiment with P12-Ichikawa (HPLM + 10% dialyzed FBS), 472; in the experiment with P12-Ichikawa (RPMI 5 mM glucose + 10% FBS), 464; in the experiment with P12-Ichikawa (setting [1]) it was 466. The figures for the “AUC of viability dose-response curve” value in the experiment with SEM cells (HPLM + 10% dialyzed FBS), in the experiment on SEM cells (RPMI 5 mM glucose + 10% FBS) and in the experiment on SEM cells (setting [1]) were 473, 458 and 461, respectively.
As for `C1COC(NC(C2CC2)C2CC2)=N1`, the “AUC of viability dose-response curve” value with NOMO1 (HPLM + 10% dialyzed FBS) is 428; with NOMO1 (RPMI 5 mM glucose + 10% FBS), 415; in the experiment with NOMO1 (setting [1]) it was 408; in the experiment with P12-Ichikawa (HPLM + 10% dialyzed FBS), 425; in the experiment with P12-Ichikawa (RPMI 5 mM glucose + 10% FBS), 459; with P12-Ichikawa (setting [1]), 404.
On to `Nc1nc(N)c(N=O)c(OCC2CCCCC2)n1`, for which the “AUC of viability dose-response curve” value with NOMO1 (HPLM + 10% dialyzed FBS) came to 381; with NOMO1 (RPMI 5 mM glucose + 10% FBS), 379; with NOMO1 (setting [1]), 380; in the experiment with P12-Ichikawa (HPLM + 10% dialyzed FBS) it was 395; in the experiment with P12-Ichikawa (RPMI 5 mM glucose + 10% FBS), 372; in the experiment on P12-Ichikawa (setting [1]), 371. The “AUC of viability dose-response curve” value in the experiment with SEM cells (HPLM + 10% dialyzed FBS) turned out to be 340; in the experiment with SEM cells (RPMI 5 mM glucose + 10% FBS), 354; with SEM cells (setting [1]), 370.
For `CN1CCC(CC1)=C2C3=C(C=CC=C3)\C=C/C4=C2C=CC=C4`, the “AUC of viability dose-response curve” value in the experiment with NOMO1 (HPLM + 10% dialyzed FBS) came out at 470; in the experiment on NOMO1 (RPMI 5 mM glucose + 10% FBS) it was 467; in the experiment on NOMO1 (setting [1]), 468; with P12-Ichikawa (HPLM + 10% dialyzed FBS) it was 473; with P12-Ichikawa (RPMI 5 mM glucose + 10% FBS), 467; in the experiment with P12-Ichikawa (setting [1]) it was 477. Also, the “AUC of viability dose-response curve” value in the experiment with SEM cells (HPLM + 10% dialyzed FBS) was 469; in the experiment with SEM cells (RPMI 5 mM glucose + 10% FBS), 467; with SEM cells (setting [1]), 468.
For the compound `Oc1ccc2ccccc2c1SSc1c(O)ccc2ccccc12`, the “AUC of viability dose-response curve” value in the experiment on NOMO1 (HPLM + 10% dialyzed FBS) amounted to 470; with NOMO1 (RPMI 5 mM glucose + 10% FBS), 469; in the experiment with NOMO1 (setting [1]), 469; with P12-Ichikawa (HPLM + 10% dialyzed FBS) it was 474; in the experiment with P12-Ichikawa (RPMI 5 mM glucose + 10% FBS) it was 464; in the experiment on P12-Ichikawa (setting [1]), 463. Moreover, the entries for the “AUC of viability dose-response curve” value with SEM cells (HPLM + 10% dialyzed FBS), in the experiment on SEM cells (RPMI 5 mM glucose + 10% FBS) and in the experiment with SEM cells (setting [1]) were 453, 450 and 417, respectively.
Turning to `CC(C)c1c(C(=O)Nc2ccccc2)c(-c2ccccc2)c(-c2ccc(F)cc2)n1CC[C@@H](O)C[C@@H](O)CC(=O)[O-]`, the “AUC of viability dose-response curve” value in the experiment with NOMO1 (HPLM + 10% dialyzed FBS) worked out at 428; in the experiment on NOMO1 (RPMI 5 mM glucose + 10% FBS), 431; with NOMO1 (setting [1]), 412; in the experiment on P12-Ichikawa (HPLM + 10% dialyzed FBS), 448; with P12-Ichikawa (RPMI 5 mM glucose + 10% FBS), 400; in the experiment on P12-Ichikawa (setting [1]), 409. Also, the “AUC of viability dose-response curve” value was 440 in the experiment on SEM cells (HPLM + 10% dialyzed FBS), 439 with SEM cells (RPMI 5 mM glucose + 10% FBS) and 447 in the experiment on SEM cells (setting [1]).
In the case of `Cc1nc(N)ncc1-c1nc(N2CCOCC2)c2sc(C(C)(C)O)cc2n1`, the “AUC of viability dose-response curve” value with NOMO1 (HPLM + 10% dialyzed FBS) was determined as 204; in the experiment on NOMO1 (RPMI 5 mM glucose + 10% FBS) it was 264; in the experiment on NOMO1 (setting [1]), 285; in the experiment on P12-Ichikawa (HPLM + 10% dialyzed FBS), 213; in the experiment with P12-Ichikawa (RPMI 5 mM glucose + 10% FBS), 279; in the experiment on P12-Ichikawa (setting [1]), 276. Further, the results for the “AUC of viability dose-response curve” value in the experiment on SEM cells (HPLM + 10% dialyzed FBS), with SEM cells (RPMI 5 mM glucose + 10% FBS) and in the experiment on SEM cells (setting [1]) were 249, 163 and 220, respectively.
As to `C[N]1N=CC=C1C/2=C(\C)N(C(=O)C(=C2)/C(=O)NCC3=NC=C(C=C3)[S+](C)([O-])=O)C4=CC=CC(=C4)C(F)(F)F`, the “AUC of viability dose-response curve” value in the experiment with P12-Ichikawa (HPLM + 10% dialyzed FBS) was determined as 462; in the experiment on P12-Ichikawa (RPMI 5 mM glucose + 10% FBS), 454; with P12-Ichikawa (setting [1]), 455; with SEM cells (HPLM + 10% dialyzed FBS) it was 466; with SEM cells (RPMI 5 mM glucose + 10% FBS), 453; in the experiment on SEM cells (setting [1]) it was 468.
Regarding `Cc1ccc([S+](=O)([O-])Nc2cc(Cl)ccc2C(=O)Nc2nc(-c3ccccc3)cs2)cc1`, the “AUC of viability dose-response curve” value with NOMO1 (HPLM + 10% dialyzed FBS) amounted to 455; in the experiment with NOMO1 (RPMI 5 mM glucose + 10% FBS), 409; with NOMO1 (setting [1]) it was 447; with P12-Ichikawa (HPLM + 10% dialyzed FBS) it was 458; in the experiment with P12-Ichikawa (RPMI 5 mM glucose + 10% FBS), 457; in the experiment on P12-Ichikawa (setting [1]), 450.
Regarding `Cc1cnc(Nc2ccc(CN3CCOCC3)cc2)nc1Nc1cccc([S+](=O)([O-])NC(C)(C)C)c1`, the “AUC of viability dose-response curve” value in the experiment with P12-Ichikawa (HPLM + 10% dialyzed FBS) turned out to be 299; in the experiment on P12-Ichikawa (RPMI 5 mM glucose + 10% FBS) it was 300; in the experiment with P12-Ichikawa (setting [1]), 292.
